# Experimental data published in PMC8286840, “Identifying SARS-CoV-2 antiviral compounds by screening for small molecule inhibitors of Nsp3 papain-like protease” (Biochemical Journal, 2021).
# Counter-ions that a name gives are not always drawn. Like-named read-outs stand apart in the source and are kept apart here.
# Legend:
# [1] = target: T1, SARS-CoV-2 PLpro (nsp3 1564–1878) (Severe acute respiratory syndrome coronavirus 2, UniProt P0DTD1); test: biochemical; set-up: FRET-quenched peptide (Pro3) cleavage by PLpro, 10 min pre-incubation, slope over 20 min, normalised to no-compound control; details: low concentration screen, read-out: % of control remaining
# [2] = target: T1, SARS-CoV-2 PLpro (nsp3 1564–1878); test: biochemical; set-up: FRET-quenched peptide (Pro3) cleavage by PLpro, 10 min pre-incubation, slope over 20 min, normalised to no-compound control; details: high concentration screen, read-out: % of control remaining
structure (smiles),measurement,setting,value
C=C1C[C@@]2(O)O[C@@]3(C[C@H]2C(C)C)[C@@H](C)CC[C@@H]13 [Curcumol],remaining activity at 1.25 µM,[1]; Well no.=5202,90.5%
same,remaining activity at 3.75 µM,[2]; Well no.=5202,85.6%
CC(CN(C)C)CN1c2ccccc2Sc2ccc(C#N)cc21 (centres unmarked) [Cyamemazine],remaining activity at 1.25 µM,[1]; Well no.=5789,102%
same,remaining activity at 3.75 µM,[2]; Well no.=5789,105%
Nc1nc2c(ncn2[C@@H]2O[C@@H]3COP(=O)(O)O[C@H]4[C@@H](O)[C@H](n5cnc6c(=O)[nH]c(N)nc65)O[C@@H]4COP(=O)(O)O[C@H]3[C@H]2O)c(=O)[nH]1 [Cyclic-di-GMP],remaining activity at 1.25 µM,[1]; Well no.=7774,103%
same,remaining activity at 1.25 µM,[1]; Well no.=8405,101%
same,remaining activity at 3.75 µM,[2]; Well no.=7774,102%
same,remaining activity at 3.75 µM,[2]; Well no.=8405,100%
NCCCC[C@@H]1NC(=O)[C@@H](Cc2ccccc2)NC(=O)[C@H](CC(=O)O)NC(=O)CNC(=O)[C@H](CCCN=C(N)N)NC1=O [Cyclo(-RGDfK)],remaining activity at 1.25 µM,[1]; Well no.=8410,96.3%
same,remaining activity at 3.75 µM,[2]; Well no.=8410,96.9%
NCCCC[C@@H]1NC(=O)[C@@H](Cc2ccc(O)cc2)NC(=O)[C@H](CC(=O)O)NC(=O)CNC(=O)[C@H](CCCN=C(N)N)NC1=O [Cyclo(RGDyK) trifluoroacetate],remaining activity at 1.25 µM,[1]; Well no.=8698,101%
same,remaining activity at 3.75 µM,[2]; Well no.=8698,97.8%
O=C1N[C@@H](Cc2cnc[nH]2)C(=O)N2CCC[C@@H]12 [Cyclo(his-pro)],remaining activity at 1.25 µM,[1]; Well no.=6245,106%
same,remaining activity at 3.75 µM,[2]; Well no.=6245,105%
CN(C)CCC=C1c2ccccc2C=Cc2ccccc21 [Cyclobenzaprine (hydrochloride)],remaining activity at 1.25 µM,[1]; Well no.=6284,106%
same,remaining activity at 3.75 µM,[2]; Well no.=6284,105%
CN(C)CCC=C1c2ccccc2C=Cc2ccccc21 [Cyclobenzaprine hydrochloride],remaining activity at 1.25 µM,[1]; Well no.=320,92.5%
same,remaining activity at 3.75 µM,[2]; Well no.=320,93.2%
N=c1ccn2c(n1)O[C@H]1[C@H](O)[C@@H](CO)O[C@H]12 [Cyclocytidine],remaining activity at 1.25 µM,[1]; Well no.=1936,96.5%
same,remaining activity at 3.75 µM,[2]; Well no.=1936,103%
C[C@@H]1C[C@@H]([C@H](O)CC2CC(=O)NC(=O)C2)C(=O)[C@@H](C)C1 [Cycloheximide],remaining activity at 1.25 µM,[1]; Well no.=3179,98.2%
same,remaining activity at 3.75 µM,[2]; Well no.=3179,98.5%
CC1=C2C[C@H]3[C@@H](CC=C4C[C@@H](O)CC[C@@]43C)[C@@H]2CC[C@]12O[C@@H]1C[C@H](C)CN[C@H]1[C@H]2C [Cyclopamine],remaining activity at 1.25 µM,[1]; Well no.=3181,107%
same,remaining activity at 3.75 µM,[2]; Well no.=3181,106%
CC(=O)C1=C(O)[C@@H]2[C@H]3c4c[nH]c5cccc(c45)C[C@H]3C(C)(C)N2C1=O [Cyclopiazonic acid],remaining activity at 1.25 µM,[1]; Well no.=3183,102%
same,remaining activity at 3.75 µM,[2]; Well no.=3183,104%
NS(=O)(=O)c1cc2c(cc1Cl)NC(C1CC3C=CC1C3)NS2(=O)=O (centres unmarked) [Cyclothiazide],remaining activity at 1.25 µM,[1]; Well no.=387,104%
same,remaining activity at 3.75 µM,[2]; Well no.=387,101%
CN1CCC(=C2c3ccccc3C=Cc3ccccc32)CC1 [Cyproheptadine (hydrochloride sesquihydrate)],remaining activity at 1.25 µM,[1]; Well no.=6185,97.8%
same,remaining activity at 3.75 µM,[2]; Well no.=6185,95.9%
CN1CCC(=C2c3ccccc3C=Cc3ccccc32)CC1 [Cyproheptadine (hydrochloride)],remaining activity at 1.25 µM,[1]; Well no.=6994,97.6%
same,remaining activity at 3.75 µM,[2]; Well no.=6994,99.7%
CN1CCC(=C2c3ccccc3C=Cc3ccccc32)CC1 [Cyproheptadine hydrochloride],remaining activity at 1.25 µM,[1]; Well no.=38,93.9%
same,remaining activity at 3.75 µM,[2]; Well no.=38,91.5%
CN1CCC(=C2c3ccccc3C=Cc3ccccc32)CC1 [Cyproheptadine],remaining activity at 1.25 µM,[1]; Well no.=2300,97.2%
same,remaining activity at 3.75 µM,[2]; Well no.=2300,98.2%
CC(=O)O[C@]1(C(C)=O)CC[C@H]2[C@@H]3C=C(Cl)C4=CC(=O)[C@@H]5C[C@@H]5[C@]4(C)[C@H]3CC[C@@]21C [Cyproterone acetate],remaining activity at 1.25 µM,[1]; Well no.=316,95.3%
same,remaining activity at 1.25 µM,[1]; Well no.=1934,99.5%
same,remaining activity at 3.75 µM,[2]; Well no.=316,95.7%
same,remaining activity at 3.75 µM,[2]; Well no.=1934,99.8%
NCCSSCCN [Cystamine dihydrochloride],remaining activity at 1.25 µM,[1]; Well no.=280,97%
same,remaining activity at 3.75 µM,[2]; Well no.=280,99.9%
NCCS [Cysteamine hydrochloride],remaining activity at 1.25 µM,[1]; Well no.=884,105%
same,remaining activity at 3.75 µM,[2]; Well no.=884,103%
Nc1ccn([C@@H]2O[C@H](CO)[C@@H](O)[C@@H]2O)c(=O)n1 [Cytarabine],remaining activity at 1.25 µM,[1]; Well no.=1938,99.8%
same,remaining activity at 1.25 µM,[1]; Well no.=8847,108%
same,remaining activity at 3.75 µM,[2]; Well no.=1938,98.4%
same,remaining activity at 3.75 µM,[2]; Well no.=8847,105%
Nc1ccn([C@@H]2O[C@H](CO)[C@@H](O)[C@H]2O)c(=O)n1 [Cytidine],remaining activity at 1.25 µM,[1]; Well no.=5054,97.5%
same,remaining activity at 1.25 µM,[1]; Well no.=6205,108%
same,remaining activity at 1.25 µM,[1]; Well no.=8014,98.6%
same,remaining activity at 3.75 µM,[2]; Well no.=5054,100%
same,remaining activity at 3.75 µM,[2]; Well no.=6205,110%
same,remaining activity at 3.75 µM,[2]; Well no.=8014,97.3%
C=C1[C@@H](C)[C@H]2[C@H](Cc3ccccc3)NC(=O)[C@]23OC(=O)/C=C/[C@H](O)CCC[C@@H](C)C/C=C/[C@H]3[C@@H]1O [Cytochalasin B],remaining activity at 1.25 µM,[1]; Well no.=3189,98%
same,remaining activity at 3.75 µM,[2]; Well no.=3189,98.1%
C=C1[C@@H](C)[C@H]2[C@H](Cc3ccccc3)NC(=O)[C@]23[C@H](OC(C)=O)/C=C/[C@@](C)(O)C(=O)[C@@H](C)C/C=C/[C@H]3[C@@H]1O [Cytochalasin D],remaining activity at 1.25 µM,[1]; Well no.=3581,98.2%
same,remaining activity at 3.75 µM,[2]; Well no.=3581,99.7%
C[C@H]1C/C=C/[C@H]2[C@@H]3O[C@]3(C)[C@@H](C)[C@H]3[C@H](Cc4ccccc4)NC(=O)[C@]32OC(=O)O/C=C/[C@@](C)(O)C1=O [Cytochalasin E],remaining activity at 1.25 µM,[1]; Well no.=3627,101%
same,remaining activity at 3.75 µM,[2]; Well no.=3627,103%
Nc1ccn([C@@H]2O[C@H](CO)[C@@H](O)[C@@H]2O)c(=O)n1 [Cytosine-1-beta-D-arabinofuranoside hydrochloride],remaining activity at 1.25 µM,[1]; Well no.=374,94.2%
same,remaining activity at 3.75 µM,[2]; Well no.=374,89.3%
Nc1cc[nH]c(=O)n1 [Cytosine],remaining activity at 1.25 µM,[1]; Well no.=6579,101%
same,remaining activity at 3.75 µM,[2]; Well no.=6579,103%
CCCCCCCC(=O)c1c(O)cc(O)cc1CC(=O)OCC [Cytosporone B],remaining activity at 1.25 µM,[1]; Well no.=5993,98.3%
same,remaining activity at 3.75 µM,[2]; Well no.=5993,98.7%
N[C@H](CCCCCP(=O)(O)O)C(=O)O [D(-)-2-Amino-7-phosphonoheptanoic acid],remaining activity at 1.25 µM,[1]; Well no.=352,96.5%
same,remaining activity at 3.75 µM,[2]; Well no.=352,98.1%
CC[C@@H](N)C(=O)O [D(-)-2-Aminobutyric acid],remaining activity at 1.25 µM,[1]; Well no.=7701,97.2%
same,remaining activity at 3.75 µM,[2]; Well no.=7701,92.5%
C[C@@H](N)C(=O)O [D-Alanine],remaining activity at 1.25 µM,[1]; Well no.=7693,107%
same,remaining activity at 3.75 µM,[2]; Well no.=7693,105%
OC[C@@H](O)C(O)[C@H](O)CO [D-Arabitol],remaining activity at 1.25 µM,[1]; Well no.=6501,92.6%
same,remaining activity at 3.75 µM,[2]; Well no.=6501,93.2%
